# Experimental data reported in EP4603105A1, “PHARMACEUTICAL COMPOSITION CONTAINING CYCLIC COMPOUND HAVING SELECTIVE KRAS INHIBITORY EFFECT AGAINST HRAS AND NRAS” (CHUGAI SEIYAKU KABUSHIKI KAISHA, priority 2022, dated 2024).
# What was measured:
# [1] = molecular target: GDP-bound KRAS wild-type protein (Homo sapiens, UniProt P01116); assay: Binding to KRAS by surface plasmon resonance (SPR), dissociation constant KD; details: Single Cycle Kinetics
# In short: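 Running buffer contained 10 µM GDP and 10 mM MgCl2 to keep RAS in the GDP state, with 4% DMSO at pH 7.4. Compounds were flowed at 100 µL/min in 75 s steps of rising concentration over captured biotin-Avi RAS at 30°C. Sensorgrams were fitted 1:1 for KD.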
# [2] = molecular target: HRAS wild-type protein (Homo sapiens, UniProt P01112); assay: Binding to HRAS by surface plasmon resonance (SPR), KD and KD ratio to KRAS; details: ratio of KD for HRAS wild-type protein to KD for KRAS
# Sequence of HRAS wild-type protein (P01112 whole entry): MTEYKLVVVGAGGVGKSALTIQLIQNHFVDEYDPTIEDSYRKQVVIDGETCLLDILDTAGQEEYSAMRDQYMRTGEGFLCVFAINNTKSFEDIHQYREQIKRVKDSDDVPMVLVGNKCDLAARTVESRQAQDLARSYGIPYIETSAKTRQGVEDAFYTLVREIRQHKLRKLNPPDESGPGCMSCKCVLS
# In short: (§1)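 Biotinylated GDP-bound RAS was captured at about 100–300 RU. Running buffer: HBS pH 7.4, 10 mM MgCl2, 10 µM GDP, 1 mM DTT, 0.01% Tween 20, 4% DMSO.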
# [3] = tested on: human lung cancer strain NCI-H441; assay: NCI-H441 cell proliferation inhibitory activity (CellTiter-Glo, 4 days); type: cell-based; details: NCI-H441 cells, 4 days, read-out: NCl-H441 IC50
# In short: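 Step one: dispense the test compound in serial DMSO dilutions. Step three: add the reagent and measure […].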
# [4] = molecular target: GDP-bound NRAS wild-type protein (Homo sapiens, UniProt P01111); assay: Binding to NRAS by surface plasmon resonance (SPR), KD and KD ratio to KRAS; details: ratio of KD for GDP-bound NRAS wild-type protein to KD for KRAS
# Sequence of GDP-bound NRAS wild-type protein (P01111 whole entry): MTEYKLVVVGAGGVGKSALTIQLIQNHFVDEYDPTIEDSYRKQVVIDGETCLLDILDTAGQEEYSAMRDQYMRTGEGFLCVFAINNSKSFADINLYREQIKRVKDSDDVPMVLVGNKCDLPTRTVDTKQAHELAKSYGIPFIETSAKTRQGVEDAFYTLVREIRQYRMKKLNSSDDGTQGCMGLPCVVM
# In short: as §1
# Sequence of GDP-bound KRAS wild-type protein (P01116 1-188 isoform P01116-2): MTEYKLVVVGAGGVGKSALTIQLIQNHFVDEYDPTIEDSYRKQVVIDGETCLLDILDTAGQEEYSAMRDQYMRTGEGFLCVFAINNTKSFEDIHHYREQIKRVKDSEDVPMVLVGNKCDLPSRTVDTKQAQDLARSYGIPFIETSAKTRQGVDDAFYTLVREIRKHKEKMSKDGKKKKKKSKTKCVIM
SMILES,Kd [1] [nM],HRAS /KRAS [2],IC50 [3] [nM],NRAS /KRAS [4]
CCCO[C@@H]1C[C@H]2C(=O)NC3(CC(C)(C)C3)C(=O)N(C)[C@@H](C3CCCC3)C(=O)N(C)[C@H](C(=O)N(C)CC)CC(=O)N[C@@H](COCC)C(=O)N[C@@H]([C@@H](C)CC)C(=O)N3CCC[C@H]3C(=O)N(C)[C@H]3C/C=C\CCN(C3=O)[C@@H](Cc3ccc(C)cc3)C(=O)N(C)CC(=O)N[C@@H](CCc3ccc(C(F)(F)F)c(OC)c3)C(=O)N2C1 [PP3439],1.7,A (a compound having 10 or more and less than 20 is denoted as A),148,A (a compound having 10 or more and less than 20 is denoted as A)
CCC[C@H]1C(=O)N[C@@H]([C@@H](C)CC)C(=O)N(C)CC(=O)N(C)[C@H]2C/C=C\CCN(C2=O)[C@@H](Cc2ccc(C(F)(F)F)cc2)C(=O)N(C)CC(=O)N[C@@H](CCc2ccc(C(F)(F)F)c(Cl)c2)C(=O)N2CC3(CC3)C[C@H]2C(=O)NC2(CCC2)C(=O)N(C)[C@@H](C2CCCC2)C(=O)N(C)[C@H](C(=O)N(C)C)CC(=O)N1C [PP3440],0.047,A (a compound having 10 or more and less than 20 is denoted as A),12.1,AA (a compound having 20 or more is denoted as AA)
CCC[C@H]1C(=O)N[C@@H]([C@@H](C)CC)C(=O)N(C)CC(=O)N(C)[C@H]2C/C=C\CCN(C2=O)[C@@H](Cc2ccc(C)cc2)C(=O)N(C)CC(=O)N[C@@H](CCc2ccc(C(F)(F)F)c(Cl)c2)C(=O)N2CC3(CC3)C[C@H]2C(=O)NC2(CCC2)C(=O)N(C)[C@@H](C2CCCC2)C(=O)N(C)[C@H](C(=O)N(C)C)CC(=O)N1C [PP3442],0.083,B (a compound having 3 or more and less than 10 is denoted as B),7.7,A (a compound having 10 or more and less than 20 is denoted as A)
CCCO[C@@H]1C[C@H]2C(=O)NC3(CC(C)(C)C3)C(=O)N(C)[C@@H](C3CCCC3)C(=O)N(C)[C@H](C(=O)N(C)CC)CC(=O)N[C@@H](COCC)C(=O)N[C@@H]([C@@H](C)CC)C(=O)N3C[C@@H](F)C[C@H]3C(=O)N(C)[C@H]3C/C=C\CCN(C3=O)[C@@H](Cc3ccc(C)cc3)C(=O)N(C)CC(=O)N[C@@H](CCc3ccc(C(F)(F)F)c(OC)c3)C(=O)N2C1 [PP3443],0.75,A (a compound having 10 or more and less than 20 is denoted as A),73.5,A (a compound having 10 or more and less than 20 is denoted as A)
CCC[C@H]1C(=O)N[C@@H](C2CCCC2)C(=O)N(C)CC(=O)N(C)[C@H]2C/C=C\CCN(C2=O)[C@@H](Cc2ccc(C)cc2)C(=O)N(C)CC(=O)N[C@@H](CCc2ccc(C(F)(F)F)c(Cl)c2)C(=O)N2CC3(CC3)C[C@H]2C(=O)NC2(CCC2)C(=O)N(C)[C@@H](C2CCCC2)C(=O)N(C)[C@H](C(=O)N(C)C)CC(=O)N1C [PP3444],0.19,A (a compound having 10 or more and less than 20 is denoted as A),13.6,AA (a compound having 20 or more is denoted as AA)
CCO[C@@H]1C[C@H]2C(=O)NC3(CC(C)(C)C3)C(=O)N(C)[C@@H](C3CCCC3)C(=O)N(C)[C@H](C(=O)N(C)C)CC(=O)N[C@@H](CC(C)C)C(=O)N[C@@H]([C@@H](C)CC)C(=O)N(C)CC(=O)N(C)[C@H]3C/C=C\CCN(C3=O)[C@@H](Cc3ccc(C(F)(F)F)cc3)C(=O)N(C)CC(=O)N[C@@H](CCc3ccc(C(F)(F)F)c(OC)c3)C(=O)N2C1 [PP3445],0.13,A (a compound having 10 or more and less than 20 is denoted as A),20.2,A (a compound having 10 or more and less than 20 is denoted as A)
CCCC[C@@H]1NC(=O)C[C@@H](C(=O)N(C)C)N(C)C(=O)[C@H](C2CCCC2)N(C)C(=O)C2(CC(C)(C)C2)NC(=O)[C@@H]2C[C@@H](OCC)CN2C(=O)[C@H](CCc2ccc(C(F)(F)F)c(OC)c2)NC(=O)CN(C)C(=O)[C@H](Cc2ccc(C(F)(F)F)cc2)N2CC/C=C\C[C@@H](C2=O)N(C)C(=O)CN(C)C(=O)[C@H]([C@@H](C)CC)NC1=O [PP3446],0.2,A (a compound having 10 or more and less than 20 is denoted as A),21.3,A (a compound having 10 or more and less than 20 is denoted as A)
CCC[C@@H]1NC(=O)C[C@@H](C(=O)N(C)C)N(C)C(=O)[C@H](C2CCCC2)N(C)C(=O)C2(CC(C)(C)C2)NC(=O)[C@@H]2C[C@@H](OCC)CN2C(=O)[C@H](CCc2ccc(C(F)(F)F)c(OC)c2)NC(=O)CN(C)C(=O)[C@H](Cc2ccc(C(F)(F)F)cc2)N2CC/C=C\C[C@@H](C2=O)N(C)C(=O)CN(C)C(=O)[C@H]([C@@H](C)CC)NC1=O [PP3447],0.16,A (a compound having 10 or more and less than 20 is denoted as A),19.1,A (a compound having 10 or more and less than 20 is denoted as A)
CCO[C@@H]1C[C@H]2C(=O)NC3(CC(C)(C)C3)C(=O)N(C)[C@@H](C3CCCC3)C(=O)N(C)[C@H](C(=O)N(C)C)CC(=O)N[C@@H](CC3CC3)C(=O)N[C@@H]([C@@H](C)CC)C(=O)N(C)CC(=O)N(C)[C@H]3C/C=C\CCN(C3=O)[C@@H](Cc3ccc(C(F)(F)F)cc3)C(=O)N(C)CC(=O)N[C@@H](CCc3ccc(C(F)(F)F)c(OC)c3)C(=O)N2C1 [PP3448],0.2,A (a compound having 10 or more and less than 20 is denoted as A),18.4,A (a compound having 10 or more and less than 20 is denoted as A)
CCCOC[C@@H]1NC(=O)C[C@@H](C(=O)N(C)CCC)N(C)C(=O)[C@H](C2CCCC2)N(C)C(=O)C2(CC(C)(C)C2)NC(=O)[C@@H]2C[C@@H](OCC)CN2C(=O)[C@H](CCc2ccc(C(F)(F)F)c(OC)c2)NC(=O)CN(C)C(=O)[C@H](Cc2ccc(C(F)(F)F)cc2)N2CC/C=C\C[C@@H](C2=O)N(C)C(=O)CN(C)C(=O)[C@H]([C@@H](C)CC)NC1=O [PP3449],0.25,A (a compound having 10 or more and less than 20 is denoted as A),31.9,A (a compound having 10 or more and less than 20 is denoted as A)
CCCOC[C@@H]1NC(=O)C[C@@H](C(=O)N(C)CCC)N(C)C(=O)[C@H](C2CCCC2)N(C)C(=O)C2(CC(C)(C)C2)NC(=O)[C@@H]2C[C@@H](OCC)CN2C(=O)[C@H](CCc2ccc(C(F)(F)F)c(Cl)c2)NC(=O)CN(C)C(=O)[C@H](Cc2ccc(C(F)(F)F)cc2)N2CC/C=C\C[C@@H](C2=O)N(C)C(=O)CN(C)C(=O)[C@H]([C@@H](C)CC)NC1=O [PP3450],0.51,A (a compound having 10 or more and less than 20 is denoted as A),43.3,A (a compound having 10 or more and less than 20 is denoted as A)
CCCOC[C@@H]1NC(=O)C[C@@H](C(=O)N(C)CCC)N(C)C(=O)[C@H](C2CCCC2)N(C)C(=O)C2(CC(C)(C)C2)NC(=O)[C@@H]2C[C@@H](OCC)CN2C(=O)[C@H](CCc2cc(F)c(C(F)(F)F)c(F)c2)NC(=O)CN(C)C(=O)[C@H](Cc2ccc(C(F)(F)F)cc2)N2CC/C=C\C[C@@H](C2=O)N(C)C(=O)CN(C)C(=O)[C@H]([C@@H](C)CC)NC1=O [PP3451],0.35,A (a compound having 10 or more and less than 20 is denoted as A),26.2,A (a compound having 10 or more and less than 20 is denoted as A)
CCO[C@@H]1C[C@H]2C(=O)NC3(CC(C)(C)C3)C(=O)N(C)[C@@H](C3CCCC3)C(=O)N(C)[C@H](C(=O)N(C)C)CC(=O)N[C@@H](CC(C)C)C(=O)N[C@@H]([C@@H](C)CC)C(=O)N(C)CC(=O)N(C)[C@H]3C/C=C\CCN(C3=O)[C@@H](Cc3ccc(C(F)(F)F)cc3)C(=O)N(C)CC(=O)N[C@@H](CCc3ccc(C(F)(F)F)c(Cl)c3)C(=O)N2C1 [PP3452],0.19,A (a compound having 10 or more and less than 20 is denoted as A),14.5,A (a compound having 10 or more and less than 20 is denoted as A)
CCCC[C@@H]1NC(=O)C[C@@H](C(=O)N(C)C)N(C)C(=O)[C@H](C2CCCC2)N(C)C(=O)C2(CC(C)(C)C2)NC(=O)[C@@H]2C[C@@H](OCC)CN2C(=O)[C@H](CCc2ccc(C(F)(F)F)c(Cl)c2)NC(=O)CN(C)C(=O)[C@H](Cc2ccc(C(F)(F)F)cc2)N2CC/C=C\C[C@@H](C2=O)N(C)C(=O)CN(C)C(=O)[C@H]([C@@H](C)CC)NC1=O [PP3453],0.34,A (a compound having 10 or more and less than 20 is denoted as A),19.4,A (a compound having 10 or more and less than 20 is denoted as A)
